Patent US20230348369A1 (Cytokinetics, Inc., priority 2020, published 2023)
Where two headings read alike, the source gives them in different places.

Molecular target: human NAMPT (Homo sapiens, UniProt P43490)
Experiment: Human recombinant enzyme assay (NMN fluorescence biochemical assay, activation of NAMPT)
Summary of the method: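 NMN production is detected fluorometrically (Ex 355/Em 460 nm) 40 min after acetophenone, KOH and formic acid derivatization. Reactions ran 60 min at ambient temperature: 6 nM human NAMPT, nicotinamide 150 μM, PRPP 20 μM, ATP 2.5 mM, buffered at pH 7.2 with 50 mM HEPES plus DTT, CHAPS, NaCl and 100 mM MgCl2.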

[1] = Table A, human recombinant NAMPT, NMN formation, 60 min
[2] = Table A, human recombinant NAMPT, NMN formation, 60 min, read-out: EC50 Human

Sequence of human NAMPT (P43490 whole entry): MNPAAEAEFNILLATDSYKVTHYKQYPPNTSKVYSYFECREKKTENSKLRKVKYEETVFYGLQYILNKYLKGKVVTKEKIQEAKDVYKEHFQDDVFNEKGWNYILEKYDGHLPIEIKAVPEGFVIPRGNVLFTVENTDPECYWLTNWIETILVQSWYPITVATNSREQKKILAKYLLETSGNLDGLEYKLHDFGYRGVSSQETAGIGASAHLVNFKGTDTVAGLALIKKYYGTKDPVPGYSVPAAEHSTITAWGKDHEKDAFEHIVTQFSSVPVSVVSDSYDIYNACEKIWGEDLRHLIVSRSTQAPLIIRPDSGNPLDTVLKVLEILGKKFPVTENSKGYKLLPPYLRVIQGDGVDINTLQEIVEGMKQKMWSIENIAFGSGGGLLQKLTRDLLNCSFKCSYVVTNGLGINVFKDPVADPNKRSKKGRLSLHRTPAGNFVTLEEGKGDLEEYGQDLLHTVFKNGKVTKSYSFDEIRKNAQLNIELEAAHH

Row | SMILES | AC1.4 Human [1] | EC50 [2] | EC50
1 | Cc1ccccc1C(=O)N1CCC(CCCCNC(=O)NCc2ccc(C(N)=O)cc2)CC1 [Compound 321, 4-((3-(4-(1-(2-methylbenzoyl)piperidin-4-yl)butyl)ureido)methyl)benzamide] | 0.1 µM | 2.1 µM | –
2 | Cc1cccc(N(C)C(=O)CCCCCNC(=O)NCc2ccc(Cl)cc2)c1 [Compound 264, 6-(3-(4-chlorobenzyl)ureido)-N-methyl-N-(m-tolyl)hexanamide] | 1.0 µM | 6.7 µM | –
3 | O=C(NCc1ccc(Cl)cc1)NC1CC2(CC(Cn3cncn3)C2)C1 (centres unmarked) [Compound 339, 1-(6-((1H-1,2,4-triazol-1-yl)methyl)spiro[3.3]heptan-2-yl)-3-(4-chlorobenzyl)urea] | 4.6 µM | 6.5 µM | –
4 | O=C(NCc1ccc(Cl)cc1)N[C@H]1C[C@]2(CCN(C(=O)N3CCC(N4CCCCC4)CC3)C2)C1 [Compound 354, 1-((2r,4s)-6-([1,4′-bipiperidine]-1′-carbonyl)-6-azaspiro[3.4]octan-2-yl)-3-(4-chlorobenzyl)urea] | 4.2 µM | – | –
5 | CC(C)(C)CN1CCN(C(=O)CCCCCNC(=O)NCc2ccc(Cl)cc2)CC1 [Compound 260, 1-(4-chlorobenzyl)-3-(6-(4-neopentylpiperazin-1-yl)-6-oxohexyl)urea] | 2.0 µM | 17.5 µM | –
6 | COc1ccc(CNC(=O)NC2CC3(C2)CN(C(=O)c2cccc(N4CCCC4)c2)C3)cc1 [Compound 179, 1-(4-methoxybenzyl)-3-(2-(3-(pyrrolidin-1-yl)benzoyl)-2-azaspiro[3.3]heptan-6-yl)urea] | 0.8 µM | – | 12.4 µM
7 | O=C(NCCCCCNC(=O)c1ccccn1)NCc1ccc(Cl)cc1 [Compound 279, N-(5-(3-(4-chlorobenzyl)ureido)pentyl)picolinamide] | 1.8 µM | 11.8 µM | –
8 | Cc1ccc(CC(=O)N2CCC(CCCCNC(=O)NCc3ccc(Cl)cc3)CC2)cn1 [Compound 311, 1-(4-chlorobenzyl)-3-(4-(1-(2-(6-methylpyridin-3-yl)acetyl)piperidin-4-yl)butyl)urea] | 1.2 µM | 3.4 µM | –
9 | O=C(NCc1ccc(Cl)cc1)NC1CC2(C1)CN(S(=O)(=O)c1cccc(Cl)c1)C2 [Compound 217, 1-(4-chlorobenzyl)-3-(2-((3-chlorophenyl)sulfonyl)-2-azaspiro[3.3]heptan-6-yl)urea] | 19.2 µM | 20.1 µM | –
10 | O=C(NCCCCN1CCN(C(=O)c2ccccc2)CC1)NCc1ccc(Cl)cc1 [Compound 317, 1-(4-(4-benzoylpiperazin-1-yl)butyl)-3-(4-chlorobenzyl)urea] | 4.2 µM | 25.1 µM | –
11 | O=C(NCCCCCNC(=O)c1cccnc1)NCc1ccc(Cl)cc1 [Compound 277, N-(5-(3-(4-chlorobenzyl)ureido)pentyl)nicotinamide] | 3.2 µM | 6.9 µM | –
12 | O=C(CCCCCNC(=O)NCc1ccc(Cl)cc1)NC1CCCCC1 [Compound 257, 6-(3-(4-chlorobenzyl)ureido)-N-cyclohexylhexanamide] | 2.7 µM | 17.9 µM | –
13 | COc1ccc(CNC(=O)NC2CC3(C2)CC(C(=O)NCCc2ccccc2)C3)cc1 (centres unmarked) [Compound 69, 6-(3-(4-methoxybenzyl)ureido)-N-phenethylspiro[3.3]heptane-2-carboxamide] | 4.7 µM | – | 38.4 µM

Second part, led by results:

Row | AC1.4 Human [1] | EC50 [2] | SMILES | EC50
14 | 1.5 µM | 53.1 µM | COc1ccc(CNC(=O)NC2CC3(C2)CC(C(=O)N(C)Cc2ccccc2)C3)cc1 (centres unmarked) [Compound 51, N-benzyl-6-(3-(4-methoxybenzyl)ureido)-N-methylspiro[3.3]heptane-2-carboxamide] | –
15 | 18.1 µM | 48 µM | COc1ccc(CNC(=O)NC2CC3(C2)CN(S(=O)(=O)C2CC4CCC2C4)C3)cc1 (centres unmarked) [Compound 130, 1-(2-(bicyclo[2.2.1]heptan-2-ylsulfonyl)-2-azaspiro[3.3]heptan-6-yl)-3-(4-methoxybenzyl)urea] | –
16 | 0.9 µM | 13.4 µM | COc1ccc(CNC(=O)NC2CC3(C2)CN(C(=O)c2cccc(N4CCCC4=O)c2)C3)cc1 [Compound 188, 1-(4-methoxybenzyl)-3-(2-(3-(2-oxopyrrolidin-1-yl)benzoyl)-2-azaspiro[3.3]heptan-6-yl)urea] | –
17 | 1.4 µM | 29.4 µM | COc1ccc(CNC(=O)NC2CC3(C2)CC(C(=O)NCC(C)(C)c2ccccc2C)C3)cc1 (centres unmarked) [Compound 54, 6-(3-(4-methoxybenzyl)ureido)-N-(2-methyl-2-(o-tolyl)propyl)spiro[3.3]heptane-2-carboxamide] | –
18 | 1.0 µM | 26.8 µM | COc1ccc(CNC(=O)NC2CC3(C2)CC(C(=O)N2CCN(C4COC4)CC2)C3)cc1 (centres unmarked) [Compound 111, 1-(4-methoxybenzyl)-3-(6-(4-(oxetan-3-yl)piperazine-1-carbonyl)spiro[3.3]heptan-2-yl)urea] | –
19 | 16.4 µM | 44.9 µM | COc1ccc(CNC(=O)NC2CC3(C2)CN(C(=O)c2ccncc2)C3)cc1 [Compound 139, 1-(2-isonicotinoyl-2-azaspiro[3.3]heptan-6-yl)-3-(4-methoxybenzyl)urea] | –
20 | 2.0 µM | 21.9 µM | COc1ccc(CNC(=O)NC2CC3(C2)CN(C(=O)c2cccc(OC)c2)C3)cc1 [Compound 176] | –
21 | 1.4 µM | 21.3 µM | COc1ccc(CNC(=O)NC2CC3(C2)CN(C(=O)c2cccc(-n4cccc4)c2)C3)cc1 [Compound 189, 1-(2-(3-(1H-pyrrol-1-yl)benzoyl)-2-azaspiro[3.3]heptan-6-yl)-3-(4-methoxybenzyl)urea] | –
22 | 1.0 µM | 25.8 µM | COc1ccc(CNC(=O)NC2CC3(C2)CC(C(=O)N2CCC(c4ccccc4)C2)C3)cc1 (centres unmarked) [Compound 57, 1-(4-methoxybenzyl)-3-(6-(3-phenylpyrrolidine-1-carbonyl)spiro[3.3]heptan-2-yl)urea] | –
23 | 5.1 µM | 45.2 µM | COc1ccc(CNC(=O)NC2CC3(C2)CC(C(=O)NCc2ccccc2)C3)cc1 (centres unmarked) [Compound 68, N-benzyl-6-(3-(4-methoxybenzyl)ureido)spiro[3.3]heptane-2-carboxamide] | –
24 | 0.9 µM | 3 µM | Cc1ccc(C(=O)NCC2CC3(C2)CC(NC(=O)NCc2ccc(Cl)cc2)C3)cn1 (centres unmarked) [Compound 240, N-((6-(3-(4-chlorobenzyl)ureido)spiro[3.3]heptan-2-yl)methyl)-6-methylnicotinamide] | –
25 | 0.5 µM | 10.7 µM | COc1ccc(CNC(=O)NC2CC3(C2)CC(C(=O)N2CCCc4cc(C(F)(F)F)ccc42)C3)cc1 (centres unmarked) [Compound 104, 1-(4-methoxybenzyl)-3-(6-(6-(trifluoromethyl)-1,2,3,4-tetrahydroquinoline-1-carbonyl)spiro[3.3]heptan-2-yl)urea] | –
26 | 2.7 µM | 39.1 µM | COc1ccc(CNC(=O)NC2CC3(C2)CN(C(=O)c2ccc(Cl)cc2)C3)cc1 [Compound 158, 1-(2-(4-chlorobenzoyl)-2-azaspiro[3.3]heptan-6-yl)-3-(4-methoxybenzyl)urea] | –
27 | 17.6 µM | 48.5 µM | COC(=O)C1CCC(S(=O)(=O)N2CC3(CC(NC(=O)NCc4ccc(OC)cc4)C3)C2)CC1 (centres unmarked) [Compound 131, methyl 4-((6-(3-(4-methoxybenzyl)ureido)-2-azaspiro[3.3]heptan-2-yl)sulfonyl)cyclohexane-1-carboxylate] | –
